From US8501446B2 (Vertex Pharmaceuticals Incorporated, priority 2004, dated 2013)

How the values were obtained:
Format in all cases: biochemical
[1] = biological target: T1, ROCK I (AA 6-553) (Homo sapiens, UniProt Q13464); experiment: ROCK inhibition assay, standard coupled enzyme system ("Enzyme"); conditions: enzyme-linked assay
T1 construct: ROCK I (AA 6-553)
How it was run: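 ROCK I (AA 6-553) at 45 nM and 30 °C with 45 μM ATP and 200 μM peptide, in 100 mM HEPES pH 7.5, 10 mM MgCl2, 25 mM NaCl, 2 mM DTT, 1.5% DMSO. ADP output read by a PK/LDH coupled system: 2.5 mM PEP, 350 μM NADH, 30 μg/ml PK, 10 μg/ml LDH.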

[2] = biological target: T2, full length Aurora-A (AA 1-403) (Homo sapiens, UniProt O14965); experiment: Aurora-A inhibition assay, standard coupled enzyme system; conditions: average Ki if more than one value determined
T2 construct: full length Aurora-A (AA 1-403)
T2 sequence (O14965 1-403): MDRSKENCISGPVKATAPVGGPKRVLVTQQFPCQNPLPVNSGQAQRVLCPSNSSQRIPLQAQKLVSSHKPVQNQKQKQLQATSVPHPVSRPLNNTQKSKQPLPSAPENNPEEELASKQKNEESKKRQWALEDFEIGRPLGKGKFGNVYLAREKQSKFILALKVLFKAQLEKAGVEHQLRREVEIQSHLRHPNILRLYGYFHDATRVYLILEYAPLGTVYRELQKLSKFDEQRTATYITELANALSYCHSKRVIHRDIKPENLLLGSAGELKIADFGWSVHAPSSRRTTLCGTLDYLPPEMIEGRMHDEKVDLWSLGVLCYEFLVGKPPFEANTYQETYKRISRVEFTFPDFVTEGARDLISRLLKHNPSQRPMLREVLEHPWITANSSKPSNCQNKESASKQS

[3] = biological target: Aurora-B (Homo sapiens, UniProt Q96GD4); experiment: Aurora-B inhibition assay, radioactive assay; conditions: average Ki if more than one value determined
Method: Compounds were screened for their ability to inhibit JAK3 using a standard radioactive enzyme assay. 1.5 μL/well of a DMSO stock containing serial dilutions of a compound of the present invention (concentrations ranging from 667 μM to 46 nM) was placed in a 96 well polycarbonate plate. 50 μL per well of kinase buffer (100 mM HEPES (pH 7.4), 10 mM MgCl2, 25 mM NaCl, 1 mM DTT, and 0.01% bovine serum albumin (BSA)) containing 2 μM poly(Glu)4Tyr and 10 μM ATP was also added to the plate. To initiate the reaction, 50 μL kinase buffer containing 2 nM JAK3 enzyme was added. Final ATP concentration was 5 μM [γ-^33P] ATP (200 μCi ^33P ATP/μmol ATP (Perkin Elmer, Cambridge, Mass.). After 20 minutes at room temperature (25° C.), the reaction was stopped by adding 50 μL 20% trichloroacetic acid (TCA)/0.4 mM ATP to each well. The entire content of each well was then transferred to a 96 well glass fiber filter plate using a TomTek Cell Harvester. After washing, 60 μL scintillation fluid was added and ^33P incorporation detected using a Perkin Elmer TopCount. After removing mean background values for all of the data points the data was fit using Prism software to obtain a Ki(app). Inhibition of JAK2 was measured as above except that final poly(Glu)4Tyr concentration was 15 μM and final ATP concentration was 12 μM.
Some compounds were screened for their ability to inhibit ROCK using a standard radioactive enzyme assay. Assays were carried out in a solution containing 100 mM HEPES (pH 7.5), 10 mM MgCl2, 25 mM NaCl, 2 mM DTT, and 1.5% DMSO. Final substrate concentrations in the assay were 13 μM [γ-^33P] ATP (25 mCi ^33P ATP/mmol ATP, Perkin Elmer, Cambridge, Mass./Sigma Chemicals, St Louis, Mo.) and 27 μM Myelin Basic Protein (MBP). Final enzyme concentration in the assay was 5 nM ROCK. Assays were carried out at room temperature. 1.5 μl of DMSO stock containing serial dilutions of the compound of the present invention (concentrations ranging from 10 μM to 2.6 nM) was placed in a 96 well plate. 50 μl of Solution 1 (100 mM HEPES (pH 7.5), 10 mM MgCl2, […]) was added to the plate. The reaction was initiated by addition of 50 μl of Solution 2 (100 mM HEPES (pH 7.5), 10 mM MgCl2, 4 mM DTT, […] and 10 nM ROCK). After 2 hours the reaction was quenched with 50 μL of 30% trichloroacetic acid (TCA, Fisher) containing 9 mM ATP. Transfer of 140 μL of the quenched reaction to a glass fiber filter plate (Corning, Cat. No. 3511) was followed by washing 3 times with 5% TCA. 50 μL of Optima Gold scintillation fluid (Perkin Elmer) was added and the plates were counted on a Top Count (Perkin Elmer). After removing mean background values for all of the data points the data was fit using Prism software to obtain a Ki(app).
An assay stock buffer solution was prepared containing all of the reagents listed above with the exception of ATP and the test compound of interest. The assay stock buffer solution (60 μl) was incubated in a 96 well plate with 2 μl of the test compound of interest at final concentrations spanning 0.002 μM to 30 μM at 30° C. for 10 min. Typically, a 12 point titration was conducted by preparing serial dilutions (from 1 mM compound stocks) with DMSO of the test compounds in daughter plates. The reaction was initiated by the addition of 5 μl of ATP (final concentration 200 μM). Rates of reaction were obtained using a Molecular Devices Spectramax plate reader (Sunnyvale, Calif.) over 10 min at 30° C. The Ki values were determined from the rate data as a function of inhibitor concentration using computerized nonlinear regression (Prism 3.0, Graphpad Software, San Diego, Calif.). Aurora-C activity was screened in a similar manner using Aurora-C protein. Aurora-B activity was screened using a radioactive assay, such as described in Examples 1 and 2, but using Aurora-B protein.

Aurora-B, sequence (Q96GD4 whole entry): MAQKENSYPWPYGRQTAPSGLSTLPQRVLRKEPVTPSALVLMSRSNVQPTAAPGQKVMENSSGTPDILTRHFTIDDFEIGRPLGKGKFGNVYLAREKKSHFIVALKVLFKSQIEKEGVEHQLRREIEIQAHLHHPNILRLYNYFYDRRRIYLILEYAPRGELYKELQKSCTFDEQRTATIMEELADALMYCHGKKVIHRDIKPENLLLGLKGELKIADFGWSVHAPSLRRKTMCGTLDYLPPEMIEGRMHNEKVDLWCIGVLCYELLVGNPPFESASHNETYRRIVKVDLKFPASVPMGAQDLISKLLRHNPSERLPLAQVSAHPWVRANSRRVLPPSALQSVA
T1 sequence (Q13464 6-553, species assumed): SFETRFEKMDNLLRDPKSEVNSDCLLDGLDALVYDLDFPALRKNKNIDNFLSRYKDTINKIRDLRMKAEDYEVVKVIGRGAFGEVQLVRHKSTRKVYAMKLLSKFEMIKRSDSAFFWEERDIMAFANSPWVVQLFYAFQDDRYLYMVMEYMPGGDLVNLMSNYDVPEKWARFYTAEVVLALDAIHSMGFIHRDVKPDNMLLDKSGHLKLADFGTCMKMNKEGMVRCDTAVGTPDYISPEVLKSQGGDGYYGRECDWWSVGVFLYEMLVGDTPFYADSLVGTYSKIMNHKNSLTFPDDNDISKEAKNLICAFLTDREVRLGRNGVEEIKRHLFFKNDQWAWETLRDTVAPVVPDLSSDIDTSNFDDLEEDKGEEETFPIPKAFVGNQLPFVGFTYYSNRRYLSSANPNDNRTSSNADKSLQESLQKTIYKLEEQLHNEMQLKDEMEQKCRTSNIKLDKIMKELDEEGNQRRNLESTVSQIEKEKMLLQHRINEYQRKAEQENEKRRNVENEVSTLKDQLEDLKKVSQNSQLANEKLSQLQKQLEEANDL

Ki [1] [nM]	Ki [2] [nM]	Ki [3] [nM]	SMILES
500 to 5000	< 500	< 500	Fc1cnc(-c2c[nH]c3ncc(Cl)cc23)nc1NC1CCCc2ccccc21 (stereo not drawn) [Compound 330]
500 to 5000	< 500	< 500	C[C@H](Nc1nc(-c2c[nH]c3ncc(Cl)cc23)ncc1F)c1cccc(OCCO)c1 [Compound 341]
500 to 5000	< 500	< 500	CC[C@H](Nc1nc(-c2c[nH]c3ncc(Cl)cc23)ncc1F)c1ccccc1 [Compound 354]
500 to 5000	< 500	< 500	CNC(=O)[C@@H](Nc1nc(-c2c[nH]c3ncc(Cl)cc23)ncc1F)C(C)(C)C [Compound 385]
500 to 5000	< 500	< 500	CNC(=O)[C@H](COC)Nc1nc(-c2c[nH]c3ncc(Cl)cc23)ncc1F [Compound 388]
500 to 5000	< 500	< 500	C[C@H](Nc1nc(-c2c[nH]c3ncc(Cl)cc23)c(F)cc1C(=O)O)c1ccc(F)cc1 [Compound 397]
500 to 5000	< 500	500 to 5000	C[C@H](Nc1nc(-c2c[nH]c3ncc(Cl)cc23)nc2ccccc12)c1ccc(F)cc1 [Compound 404]
500 to 5000	< 500	500 to 5000	C[C@H](Nc1nc(-c2c[nH]c3ncc(Cl)cc23)ncc1F)C(=O)NC1CCCCC1 [Compound 406]
500 to 5000	< 500	< 500	C[C@H](Nc1ccnc(-c2c[nH]c3ncc(Cl)cc23)n1)C(=O)NCC(F)(F)F [Compound 413]
500 to 5000	500 to 5000	500 to 5000	C[C@H](Nc1cc(N2CCN(C)CC2)nc(-c2c[nH]c3ncc(Cl)cc23)n1)C(=O)NCC(F)(F)F [Compound 414]
500 to 5000	< 500	< 500	C[C@H](Nc1cc(N2CCN(C(=O)OC(C)(C)C)CC2)nc(-c2c[nH]c3ncc(Cl)cc23)n1)C(=O)NCC(F)(F)F [Compound 415]
500 to 5000	< 500	500 to 5000	C[C@H](Nc1cc(N2CCNCC2)nc(-c2c[nH]c3ncc(Cl)cc23)n1)C(=O)NCC(F)(F)F [Compound 416]
500 to 5000	< 500	< 500	C[C@H](Nc1cc(NCCO)nc(-c2c[nH]c3ncc(Cl)cc23)n1)C(=O)NCC(F)(F)F [Compound 417]
500 to 5000	< 500	< 500	C[C@H](Nc1nc(-c2c[nH]c3ncc(Cl)cc23)ncc1C(F)(F)F)C(=O)NCC(F)(F)F [Compound 418]
500 to 5000	< 500	500 to 5000	O=C(CNc1nc(-c2c[nH]c3ncc(Cl)cc23)ncc1C(F)(F)F)NCC(F)(F)F [Compound 421]
500 to 5000	< 500	< 500	C[C@H](Nc1nc(-c2c[nH]c3ncc(Cl)cc23)ncc1[N+](=O)[O-])c1ccc(F)cc1 [Compound 422]
500 to 5000	< 500	< 500	C[C@H](Nc1nc(-c2c[nH]c3ncc(Cl)cc23)ncc1N)c1ccc(F)cc1 [Compound 423]

Ki [1] [nM]	Ki [2] [nM]	Ki [3] [nM]	SMILES
500 to 5000	< 500	< 500	C[C@@H](C(=O)NCC(F)(F)F)N(C)c1nc(-c2c[nH]c3ncc(Cl)cc23)ncc1C(F)(F)F [Compound 424]
500 to 5000	< 500	< 500	C[C@H](Nc1cc(C(=O)N(C)C)nc(-c2c[nH]c3ncc(Cl)cc23)n1)c1ccc(F)cc1 [Compound 425]
500 to 5000	< 500	< 500	C[C@H](Nc1nc(-c2c[nH]c3ncc(Cl)cc23)ncc1F)C(=O)NCCNC(=O)OC(C)(C)C [Compound 426]
500 to 5000	< 500	500 to 5000	CCc1cnc(Cl)nc1-c1c[nH]c2ncc(Cl)cc12 [Compound 428]
500 to 5000	500 to 5000	500 to 5000	CNc1nc(-c2c[nH]c3ncc(Cl)cc23)nc(N[C@@H](C)C(=O)NCC(F)(F)F)c1C(C)C [Compound 432]
500 to 5000	500 to 5000	500 to 5000	C[C@H](Nc1nc(-c2c[nH]c3ncc(Cl)cc23)ncc1F)C(=O)NCCc1ccccc1 [Compound 433]
500 to 5000	500 to 5000	500 to 5000	C[C@H](Nc1nc(-c2c[nH]c3ncc(Cl)cc23)ncc1F)C(=O)NCCc1cn(C)cn1 [Compound 434]
500 to 5000	500 to 5000	500 to 5000	C[C@H](Nc1nc(-c2c[nH]c3ncc(Cl)cc23)ncc1F)C(=O)NCCN1CCOCC1 [Compound 435]
500 to 5000	500 to 5000	< 500	C[C@H](Nc1nc(-c2c[nH]c3ncc(Cl)cc23)ncc1F)C(=O)NCCN1CCCC1 [Compound 436]
500 to 5000	< 500	500 to 5000	C[C@H](Nc1nc(-c2c[nH]c3ncc(Cl)cc23)ncc1F)C(=O)NCCc1c[nH]c2ccccc12 [Compound 437]
500 to 5000	500 to 5000	500 to 5000	C[C@H](Nc1nc(-c2c[nH]c3ncc(Cl)cc23)ncc1F)C(=O)NCCc1ccccn1 [Compound 438]
500 to 5000	< 500	< 500	C[C@H](Nc1nc(-c2c[nH]c3ncc(Cl)cc23)ncc1F)C(=O)NCCCN1CCCC1 [Compound 439]
500 to 5000	500 to 5000	500 to 5000	CC(C)OCCCNC(=O)[C@H](C)Nc1nc(-c2c[nH]c3ncc(Cl)cc23)ncc1F [Compound 440]
500 to 5000	500 to 5000	500 to 5000	C[C@H](Nc1nc(-c2c[nH]c3ncc(Cl)cc23)ncc1F)C(=O)NCC[C@H]1CCCN1C [Compound 448]
500 to 5000	< 500	500 to 5000	C[C@H](Nc1nc(-c2c[nH]c3ncc(Cl)cc23)ncc1F)C(=O)NCCc1cccnc1 [Compound 449]
500 to 5000	500 to 5000	500 to 5000	C[C@H](Nc1nc(-c2c[nH]c3ncc(Cl)cc23)ncc1F)C(=O)NCCN(C)C(=O)OC(C)(C)C [Compound 451]

SMILES	Ki [1] [nM]	Ki [2] [nM]	Ki [3] [nM]
C[C@H](Nc1nc(-c2c[nH]c3ncc(Cl)cc23)ncc1F)c1cccc(OC(=O)NO)c1 [Compound 375]	500 to 5000	< 500	< 500
